Laboratory results published in publication PMC7970121, “Combination With Tomatidine Improves the Potency of Posaconazole Against Trypanosoma cruzi” (Frontiers in Cellular and Infection Microbiology, 2021).
Entries after “also recorded” stand apart in the source; their conditions may differ. Structures can show the parent of a compound that is named as a salt. Where two headings read alike, the source gives them in different places.

Experiments:
[1] = system: Trypanosoma cruzi intracellular amastigotes (Tulahuen strain in rat L6 myoblasts); test: Activity on T. cruzi intracellular amastigotes in L6 cells (LacZ/CPRG, 96 h); format: cell-based; conditions: for EC50: read-out: Amastigotes (mean ± SD) EC50; for EC90: read-out: Amastigotes (mean ± SD) EC90
Experimental: (§1) L6 cells derived from rat skeletal myoblast (ATCC CRL-1458) were used as host cells for T. cruzi using trypomastigotes of Tulahuen C2C4 strain (DTU VI) expressing the β-galactosidase gene (LacZ) ([Buckner et al., 1996]). The cultures were sustained in RPMI-1640 supplemented with 10% inactivated fetal bovine serum (FBS) and […] at 5% CO2 and 37°C. Epimastigote T. cruzi (STIB 980 strain, DTU TcI) were cultivated at 28°C in liver infusion tryptose (LIT) medium supplemented with hemin (2 μg/ml) and 10% FBS and were used in log phase of growth. Bloodstream trypomastigotes (Y strain, DTU II) were isolated from Swiss Webster mice infected at the peak of parasitemia (≥ 2.5 × 10^6/ml), as reported ([Meirelles et al., 1986]).
Rat skeletal myoblasts (L6 cell lines) were seeded in 96-well plates (10^4 cells/well) in 100 μl RPMI 1640 medium supplemented with 10% fetal bovine serum (FBS) and 2 mM L-glutamine. The medium was removed after 24 h incubation and replaced by 100 μl of fresh medium containing 10^5 LacZ trypomastigotes (Tulahuen DTU VI). After 48 h, the medium was again removed and replaced with or without a serial of compound concentrations (eleven three-fold dilution steps). After 96 h of compound exposure, CPRG/Nonidet (50 μl) substrate was added and the reading performed after 2–6 h at 540 nm in Versamax microplate reader (Molecular Devices Cooperation, USA). Growth was expressed as percentage of the values of solvent-treated controls. The graphics program Softmax Pro (Molecular Devices) was used to construct dose–response curves and calculate EC50 values. Bz was used as reference drug.

[2] = system: Trypanosoma cruzi epimastigotes (STIB 980 strain); test: Activity on T. cruzi epimastigotes (resazurin, 72 h); format: cell-based
Experimental: as §1
Epimastigotes (10^7 parasites/ml) were incubated for 72 h at 28°C with serially diluted compound concentrations (eleven 1:3 dilutions) in supplemented LIT medium. Parasite viability and motility were evaluated by direct observation by light microscopy and fluorometric assays performed with resazurin (12.5 mg resazurin dissolved in 100 ml distilled water). After 2–4 h of incubation with resazurin solution, plates were read in Spectramax Gemini XS microplate fluorometer (Molecular Devices Cooperation, USA) using wavelengths of 536 nm (excitation) and 588 nm (emission) ([Räz et al., 1997]). Growth was expressed as percentage of the values of solvent-treated controls. The graphics program Softmax Pro (Molecular Devices) was used to construct dose–response curves and calculate EC50 (half maximal inhibitory concentration) values. Bz was used as reference drug.

[3] = Cytotoxicity against L6 cells (resazurin, 72 h); format: cell-based, rat
Experimental: Rat skeletal myoblasts (L6 cell lines) were seeded in 96-well plates (4 × 10^4 cells/well) in 100 μl RPMI 1640 medium supplemented with 10% fetal bovine serum (FBS) and 2 mM L-glutamine. After 24 h incubation the medium was replaced with 100 μl of fresh medium with or without a serial dilution of compound concentrations (eleven three-fold dilution steps). After 72 h of compound exposure, fluorescent dye resazurin (10 μl, 12.5 mg resazurin dissolved in 100 ml water) was added for 2 h and the readings performed at Spectramax Gemini XS microplate fluorometer (Molecular Devices Cooperation, USA), with excitation wavelength of 536 nm and an emission wavelength of 588 nm. Growth was expressed as percentage of the values of solvent-treated controls. The graphics program Softmax Pro (Molecular Devices) was used to construct dose–response curves and calculate EC50 values. Podophyllotoxin (a microtubule destabilizing agent) was used as positive control.

[4] = system: T. cruzi epimastigote cultures; set-up: method as in Chataing et al., 1998; conditions: after four days of incubation; ref Chataing et al., 1998; read-out: Concentration inhibiting growth of epimastigote cultures to 50%; cited from earlier work
T. cruzi (Y strain) = test: Mouse model of acute T. cruzi infection: parasitemia and mortality; format: in vivo, Trypanosoma cruzi
Experimental: Male Swiss Webster mice (18–23 g) were obtained from the Instituto de Ciência e Tecnologia em Biomodelos (ICTB/Fiocruz) (Rio de Janeiro, Rio de Janeiro, Brazil). Five mice were housed per cage, kept in a conventional room at 20–24°C under 12 h/12 h light/dark cycle. Sterilized water and chow were provided ad libitum. The animals were acclimated for 7 days before being used in the different assays. All procedures were done following Biosafety Guidelines in compliance with the Fiocruz and all animal procedure approved by the Committee of Ethics for the Use of Animals (CEUA L-38/17).
Male mice (n = 5 per group) were infected i.p. with 10^4 bloodstream trypomastigotes of T. cruzi (Y strain). Only mice with positive parasitemia at day 5 post infection (dpi) were included in the studies. […] Uninfected and T. cruzi-infected mice treated only with vehicle (aqueous solution of 0.5% carboxymethylcellulose) were age-matched and housed under identical conditions and used as controls ([Simões-Silva et al., 2017]). All compound formulations were freshly prepared before every administration.
All animals were individually checked for circulating blood parasitemia by counting the number of parasites in 5 µl of blood taken from the tail vein and investigated under the microscope ([Brener, 1962]). Parasitemia was checked till 30 dpi, while mortality was checked daily up to 30 days after the administration of the last dose. Mortality was given as percentage of cumulative mortality (CM) ([Simões-Silva et al., 2017]).

[5] = Toxicity in female mice after p.o. administration; format: in vivo; conditions: up to 200 mpk (data not shown)
[6] = Trypanosoma cruzi, TULAHUEN, L6, 96 h, Tulahuen strain in rat L6 myoblasts, 96 h, n = 3
[7] = Trypanosoma cruzi, Tulahuen strain in rat L6 myoblasts, 96 h, n = 3
[8] = STIB980, STIB 980 strain, 72 h, n = 3, read-out: Epimastigotes (mean ± SD) EC50
[9] = STIB980, STIB 980 strain, 72 h, n = 3, read-out: Epimastigotes (mean ± SD) EC90
[10] = L6 rat skeletal myoblast cells, rat L6 myoblasts, 72 h, n = 3, read-out: L6 cells (mean ± SD) EC50
[11] = EC50 on mammalian L6 cells versus EC50 on intracellular amastigotes
[12] = Tulahuen strain in rat L6 myoblasts, 96 h, n = 3
[13] = rat L6 myoblasts, 72 h, n = 3, read-out: L6 cells (mean ± SD) EC50
[14] = TH alone, all tested doses (up to 5 mpk) p.o., 10 days, mice
[15] = Trypanosoma cruzi, TULAHUEN, L6, 96 h

SMILES	EC50 [1, 6] [µM]	EC90 [1, 7] [µM]	EC50 [2, 8] [µM]	EC90 [2, 9] [µM]	SI (Selectivity Index) [1, 11]	EC50 at 72 h ([3]; rat) [µM]	other results
CC(C)(Oc1ccc(CCNC(=O)c2ccc(Cl)cc2)cc1)C(=O)O [Bezafibrate]	132 ± 38.6	226 ± 65	> 276	> 276	–	–	SI (Selectivity Index) [1]: >2.1; EC50 at 72 h [3, 10]: > 276 µM
S=C(S)OC1CC2CC1C1CCCC21 (stereo not shown) [D609 (potassium salt), D609]	99.4 ± 17.6	198 ± 32	154 ± 32	> 375	–	–	SI (Selectivity Index) [1]: 2.5; EC50 at 72 h [3, 10]: 247 ± 20 µM
OCC1C(O)C(O)C(O)CN1CCCCCOCC12CC3CC(CC(C3)C1)C2 (stereo not shown) [AMP-Deoxy nojirimycin, AMP-Deoxynojirimycin]	34.8 ± 15.1	66.6 ± 15.4	158 ± 5.9	237 ± 2	1.2	40.4 ± 10.9	–
Cc1cc2ncc(NC(=O)Nc3ccc(F)cc3F)c(-c3ccccc3Cl)c2cc1C [TMP-153]	–	3.9 ± 2.1	106 ± 27	> 228	1.4	0.12 ± 0.03	–
CCCCCCCCc1ccc(CCC(N)(CO)CO)cc1 [FTY720]	≤ 1	1.84 ± 1.3	7.55 ± 0.4	11.6 ± 0.3	0.5	0.39 ± 0.1	EC50 [1, 12]: 0.81 ± 0.5 µM
C[C@H]1CC[C@]2(NC1)O[C@H]1C[C@H]3[C@@H]4CC[C@H]5C[C@@H](O)CC[C@]5(C)[C@H]4CC[C@]3(C)[C@H]1[C@@H]2C [Tomatidine (hydrochloride), Tomatidine]	≤ 1	1.8 ± 0.2	192 ± 8.1	> 221	115	–	EC50 [1, 12]: 0.78 ± 0.2 µM; EC50 at 72 h [3, 13]: 89.5 ± 26.7 µM; EC50 [4]: 5.7 µM; Maximum reduction in blood parasitemia on the peak (T. cruzi (Y strain); [14]): ≤ 28%; Protection against mortality induced by the infection (T. cruzi (Y strain); [14]): all animals died by 20 dpi; Antiparasitic activity in vivo (T. cruzi (Y strain); TH alone, doses 0.5 to 5 mg/kg, acute mouse model, listed as TH): lack of antiparasitic activity; also recorded: did not present antiparasitic activity; Signs of toxicity [5]: did not show any signs of toxicity
CCCCCCCCc1ccc(CCC(N)(CO)COP(=O)(O)O)cc1 (stereo not shown) [FTY720 Phosphate, FTY720-P]	93.8 ± 3.3	168 ± 25	> 258	> 258	1.4	127 ± 22	–
CCCCCCCCCC(=O)NC(CN1CCOCC1)C(O)c1ccccc1 (stereo not shown) [PDMP (hydrochloride), PDMP]	12.5 ± 2.9	24.6 ± 9	47.9 ± 9.4	88.7 ± 18	–	–	SI (Selectivity Index) [1]: 2.7; EC50 at 72 h [3, 10]: 33.5 ± 3.1 µM
C=CCN(C)CCCCCCOc1ccc(C(=O)c2ccc(Br)cc2)c(F)c1 [Ro48-8071]	–	2.5 ± 1.9	11.6 ± 6.1	29.4 ± 16.2	12	5.7 ± 2.4	EC50 ([1]; Tulahuen strain in rat L6 myoblasts, 96 h, n = 3, listed as RO48-8071): ≤ 1 µM; EC50 [1, 12]: 0.47 ± 0.09 µM
C1CN2CCC1CC2 [Quinuclidine hydrochloride, Quinuclidine]	478 ± 174	> 677	> 677	> 677	–	–	SI (Selectivity Index) [1]: >1.4; EC50 at 72 h [3, 10]: > 677 µM
O=C(Cn1ccnc1[N+](=O)[O-])NCc1ccccc1 [Benznidazole]	2.2	6.61 ± 2.5	13.9 ± 2.2	101 ± 18	>172	> 384	EC50 [1, 12]: 2.22 ± 0.98 µM
CCCCC(C)C(OC(=O)CC(CC(=O)O)C(=O)O)C(CC(C)CC(O)CCCCC(O)CC(O)C(C)N)OC(=O)CC(CC(=O)O)C(=O)O (stereo not shown) [Fumonisin B1]	–	–	–	–	>1.8	–	EC50 [1, 15]: 50.8 ± 5.7 µM; EC90 [1, 15]: 84 ± 9.1 µM; EC50 ([2]; STIB980, 72 h, read-out: Epimastigotes (mean ± SD) EC50): > 92 µM; EC90 ([2]; STIB980, 72 h, read-out: Epimastigotes (mean ± SD) EC90): > 92 µM; EC50 at 72 h [3, 13]: > 92 µM
CCCCCCC(=O)CCCCCC/C=C/C[C@@H](O)[C@H](O)[C@@](N)(CO)C(=O)O [Myriocin]	130 ± 34	231 ± 25	> 249	> 249	>1.9	–	EC50 at 72 h [3, 13]: > 249 µM
CC[C@@H]([C@H](C)O)n1ncn(-c2ccc(N3CCN(c4ccc(OC[C@@H]5CO[C@@](Cn6cncn6)(c6ccc(F)cc6F)C5)cc4)CC3)cc2)c1=O [Posaconazole]	0.002 ± 0.001	0.016 ± 0.005	> 14.2	> 14.2	>700	> 1.42	Decrease of the parasitemia peak (T. cruzi (Y strain); Posa 1.25 mpk (suboptimal dose) p.o., 10 days (5-14 dpi), mice): about 80%; Animal survival (T. cruzi (Y strain); Posa 1.25 mpk p.o., 10 days (5-14 dpi)): 20%; Survival of mice (T. cruzi (Y strain); Posa 10 mpk p.o., 10 days (5-14 dpi)): 40%; Effect on parasitemia on the peak (8 dpi) (T. cruzi (Y strain); Posa 10 mpk p.o., 10 days (5-14 dpi), mice): suppressed parasitemia on the peak; Signs of toxicity [5]: did not show any signs of toxicity
O=C(/C=C/c1ccc(/C=C/C(=O)Nc2ccc(C3=NCCN3)cc2)cc1)Nc1ccc(C2=NCCN2)cc1 [GW4869 (hydrochloride hydrate), GW4869]	106 ± 44	> 173	> 173	> 173	>1.7	–	EC50 at 72 h [3, 13]: > 173 µM
NC1CN2CCC1CC2 (stereo not shown) [3-Amino quinuclidine dihydrochloride, 3-Amino quinuclidine]	268 ± 10	485 ± 28	> 502	> 502	>1.8	> 502	–
CN(C)CCC=C1c2ccccc2CCc2ccccc21 [Amitriptyline (hydrochloride), Amitriptyline]	12.2 ± 3.6	20.9 ± 3	59.9 ± 5.4	96.8 ± 3.3	1.4	–	EC50 at 72 h [3, 13]: 17.2 ± 1.2 µM
